Patent US8586555B2, “Immunomodulatory compositions, formulations, and methods for use thereof” (Dynavax Technologies Corporation, priority 2001, dated 2013)

How the values were obtained:
Format in all cases: cell-based
[1] = test system: human peripheral blood mononuclear cells (hPBMC); experiment: human PBMC assay, Example 5 (96 well plates, premixed); conditions: for IFN-α Mean / IFN-γ Mean: mean of donors 28051-28054
Method: (§1) Hexameric oligonucleotides were tested for immunomodulatory activity alone and complexed with lactic acid/glycolic acid copolymer microcarrier beads using a human peripheral blood mononuclear cells (hPBMC) assay. Peripheral blood was collected from healthy volunteers by venipuncture using heparinized syringes. Blood was layered onto a FICOLL® (Amersham Pharmacia Biotech) cushion and centrifuged. hPBMCs, located at the FICOLL® interface, were collected, then washed twice with cold phosphate buffered saline (PBS). The cells were resuspended and cultured in 48 well plates at 2×10^6 cells/mL at 37° C. in RPMI 1640 with 10% heat-inactivated human AB serum plus 50 units/mL penicillin, 50 μg/mL streptomycin, 300 μg/mL glutamine, 1 mM sodium pyruvate, and 1×MEM non-essential amino acids (NEAA).
(§2) Oligonucleotides were tested as single agents, or in combination with PLGA microspheres (unmodified or cationic). All oligonucleotides contained 100% phosphorothioate linkages and were tested at 20 μg/ml. The PLGA microcarriers were used at 250 μg/ml. When oligos were tested with PLGA microcarriers, the oligo and the microcarriers were added at the same time to the culture. The cells were cultured in the in the presence of test samples for 24 hours, then cell-free medium was collected from each well and assayed for IFN-γ and IFN-α concentration. Two different oligonucleotides were used as controls: a first oligonucleotide known to have immunostimulatory activity (a 22mer oligonucleotide containing an ISS (“ISS+,” 5′-[…]-3′(SEQ ID NO:2)) and a second oligonucleotide of similar sequence but lacking immunostimulatory activity (“ISS−,” 5′-[…]-3′ (SEQ ID NO:1)). SAC (PANSORBIN® CalBiochem, 1/5000 dilution) and a untreated culture were used as additional positive and negative controls, respectively. SAC contains Staph. aureus (Cowan I) cell material. All samples were assayed in duplicate.
(§3) IFN-γ and IFN-α were assayed using CYTOSCREEN™ ELISA kits from BioSource International, Inc., according to the manufacturer's instructions.
(§4) The immunomodulatory activity of the oligonucleotides used in Examples 3 and 4 was confirmed with the human PBMC assay using PBMCs from an additional four donors (donors 28051-28054). Oligonucleotides were tested alone or in combination with cationic PLGA as described in Example 3, except that 96 well plates were used instead of 48 well plates and the oligonucleotides were premixed with the cationic microspheres at room temperature for 15 minutes before they were added to the culture, rather than being added simultaneously to the culture.

[2] = test system: human peripheral blood mononuclear cells (hPBMC); experiment: human PBMC assay, Example 3 (oligo and PLGA added at the same time, 48 well plates); conditions: for IFN-α / IFN-γ: oligo 20 μg/ml, PLGA 250 μg/ml, 24 hours; for IFN-α Mean / IFN-γ Mean: mean of donors 28033, 28034
Method: as §1, §2, §3

[3] = test system: human peripheral blood mononuclear cells (hPBMC); experiment: human PBMC assay, Example 6
Method: as §1, §2, §3, §4
Additional oligonucleotides were tested for immunomodulatory activity in the human PBMC assay. Oligonucleotides were tested alone or in combination with cPLGA as described in Example 5.
Additional oligonucleotides were tested using hPBMCs from volunteers 154-157 using the same assay. Results, which are shown in Table 7, confirm the activity of oligonucleotides fitting the formula 5′-X1TCGX2-3′, where the oligonucleotide is a 3-6mer, X1 is zero or one nucleotide and X2 is zero to three nucleotides.

[4] = delivered as IMO/MC complexes (cPLGA)
[5] = in combination with cationic PLGA

| Substance | immunomodulatory activity [1, 4] | IFN-α ([1]; donor 28051) [pg/mL] | IFN-γ ([1]; donor 28051) [pg/mL] | IFN-α ([1]; donor 28052) [pg/mL] | IFN-γ ([1]; donor 28052) [pg/mL] | IFN-α ([1]; donor 28053) [pg/mL] | IFN-γ ([1]; donor 28053) [pg/mL] | IFN-α ([1]; donor 28054) [pg/mL] | IFN-γ ([1]; donor 28054) [pg/mL] | IFN-α Mean [1] [pg/mL] | IFN-γ Mean [1] [pg/mL] | IFN-α ([2]; donor 28033) [pg/mL] | IFN-γ ([2]; donor 28033) [pg/mL] | IFN-α ([2]; donor 28034) [pg/mL] | IFN-γ ([2]; donor 28034) [pg/mL] | IFN-α Mean [2] [pg/mL] | IFN-γ Mean [2] [pg/mL] | immunomodulatory activity ([1]; delivered alone) | immunomodulatory activity [2, 5] | further results |
| --- | --- | --- | --- | --- | --- | --- | --- | --- | --- | --- | --- | --- | --- | --- | --- | --- | --- | --- | --- | --- |
| 5′-AACGTT-3′ [Oligonucleotide 6-16] | variable activity | 2 | 1 | 1 | 2 | 1 | 2 | 2 | 8 | 2 | 3 | 3 | 0 | 48 | 3 | 26 | 2 |  |  | IFN-α induction [2, 5]: induce IFN-α in one of the two donors |
| 5′-ATCGAT-3′ [Oligonucleotide 6-7] | highly active | 1 | 1 | 0 | 1 | 4 | 2 | 1 | 2 | 2 | 1 | 8 | 0 | 22 | 3 | 15 | 2 | inactive | active |  |
| 5′-TCGTCG-3′ [Oligonucleotide 6-1] | highly active | 0 | 2 | 2 | 3 | 1 | 1 | 4 | 2 | 2 | 2 | 0 | 0 | 40 | 4 | 20 | 2 | inactive | active | IFN-α Mean ([3]; mean of volunteers 154-157): 0 pg/mL; IFN-γ Mean ([3]; mean of volunteers 154-157): 3 pg/mL; IFN-α ([3]; volunteer 154): 0 pg/mL; IFN-γ ([3]; volunteer 154): 0 pg/mL; IFN-α ([3]; volunteer 155): 0 pg/mL; IFN-γ ([3]; volunteer 155): 0 pg/mL; IFN-α ([3]; volunteer 156): 0 pg/mL; IFN-γ ([3]; volunteer 156): 11 pg/mL; IFN-α ([3]; volunteer 157): 0 pg/mL; IFN-γ ([3]; volunteer 157): 0 pg/mL |
